Measured values: patent publication US20090054403A1, “Treatment of Post-Traumatic Stress Disorder” (priority 2007, published 2009)
Entries after “also recorded” stand apart in the source; their conditions may differ.

Tested on: parkinsonian symptoms
Experiment: Parkinsonian clinical rating scale (CRS) in MPTP-lesioned monkeys
Assay type: in vivo, squirrel monkeys (Saimiri sciureus)
Details: hydrochloride
Description: A total of 24 squirrel monkeys (Saimiri sciureus), fourteen females and ten males were used in this study. The twenty-four animals were randomly assigned to one of four treatment groups, with 6 animals per group. The groups consisted of the following (1) group A: placebo (2) group B: 1 mg/kg/day; (3) group C: 4 mg/kg/day; and (4) group D: 10 mg/kg/day. In Group B, one animal died acutely following MPTP-lesioning, and was not replaced.
Animals were lesioned by the administration of MPTP at a concentration of 2.0 mg/kg (free-base) via subcutaneous injection to achieve a parkinsonian state (see FIGS. 151-156). A post-MPTP lesioning behavioral assessment was carried out 2 to 4 weeks after the last MPTP-Iesioning. Locomotor activity was monitored by IRAM in 60-minute sessions for 3 to 5 days. Clinical behavior (CAS) was assessed by one to three individuals rating over a period of 3 to 5 days.
Animals were tested for response to L-Dopa and the efficacy of drug nepicastat. Testing was carried out 4 to 12 weeks after the last MPTP dose. Twenty-tour squirrel monkeys were randomly assigned to 4 groups; Group A (6 animals) received placebo (water) treatment; Group B (5 animals) received drug nepicastat at 1 mg/kg/day (0.5 mg/kg twice daily); Group C (6 animals) received 4 mg/kg/day (2 mg/kg twice daily); and Group D (6 animals) received 10 mg/kg/day (5 mg/kg twice daily).
L-Dopa was administered at a concentration of either 2.5, 5, or 7.5 mg/kg by oral gavage twice daily (at 10 am and 2 pm) for 7 consecutive days. Behavior was determined by IRAM and CRS. Clinical rating was carried out 60 to 90 minutes following the 10 am morning dose on the last 4 days of treatment. Raters (one to three individuals) were blinded to the different treatment groups. IRAM assessment were preformed for 90 minutes immediately following drug administration at 2 pm on the last 2 to 5 days of drug treatment. There was a minimum 2 day washout period between each treatment dose.
Drug nepicastat or water (as placebo) was administered for 12 days following a minimum 2 day washout after L-Dopa dosing. Drug was administered twice daily at 10 am and 2 pm by oral gavage. Behavior was rated by IRAM and CRS. The CRS was conducted in the morning, 60 to 90 minutes after the 10 am dose of nepicastat on the last 5 days of drug treatment. Raters (one to three individuals) were blinded to the different treatment groups. IRAM assessments were preformed for 90 minutes immediately following drug administration at 2 pm on the last 5 days of drug treatment.
Eight parkinsonian features were rated in each animal and the total score was derived from the sum of these eight features. […]

Cl.NCc1c[nH]c(=S)n1[C@H]1CCc2c(F)cc(F)cc2C1 [nepicastat, (S)-5-Aminomethyl-1-(5,7-difluoro-1,2,3,4-tetrahydronaphth-2-yl)-2,3-dihydro-2-thioxo-1H-imidazole hydrochloride]
CRS / parkinsonian symptoms compared to placebo (1, 4, 10 mg/kg/day, 12 days, non-pairwise): no detectable differences; also recorded: no significant effect | CRS / parkinsonian symptoms compared to post-MPTP (pre-treatment) state (nepicastat 4 and 10 mg/kg/day, pairwise): significant improvement; also recorded: significant effect
